Measured values published in ChEMBL document CHEMBL1201862, “PubChem BioAssay data set” (2004).
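Following 48 hours of exposure in 96-well plates, responses at five concentrations were used to interpolate endpoints linearly. Abbreviation: GI50, concentration required for 50% inhibition of growth.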 Activity calls are given as the source filed them. No stated cut-off is given here; in the data, active = GI50 up to about 1.1 µM and inactive = higher. Residues, ends and D or L forms follow the SMILES beside them. *: point of attachment. Fmoc = O=C(OCC1c2ccccc2-c2ccccc21)*; Boc = CC(C)(C)OC(=O)*

Experiments:
Experiment in all cases: NCI anticancer screen, dose series, 48 h
M14 = test system: M14
OVCAR-4 = test system: OVCAR-4
MOLT-4 = test system: MOLT-4
SNB-75 = test system: SNB-75
SF-539 = test system: SF-539
NCI/ADR-RES = test system: NCI/ADR-RES
SK-MEL-5 = test system: SK-MEL-5
MDA-MB-231 = test system: MDA-MB-231
KM12 = test system: KM12
NCI-H23 = test system: NCI-H23
HCT-116 = test system: HCT-116
Hs-578T = test system: Hs-578T
SF-295 = test system: SF-295
BT-549 = test system: BT-549
HCT-15 = test system: HCT-15
SF-268 = test system: SF-268
SN12C = test system: SN12C
SR = test system: SR
NCI-H226 = test system: NCI-H226

SMILES	GI50 (M14)	GI50 (OVCAR-4)	GI50 (MOLT-4)	GI50 (SNB-75)	GI50 (SF-539)	GI50 (NCI/ADR-RES)	GI50 (SK-MEL-5)	GI50 (MDA-MB-231)	GI50 (KM12)	GI50 (NCI-H23)	GI50 (HCT-116)	GI50 (Hs-578T)	GI50 (SF-295)	GI50 (BT-549)	GI50 (HCT-15) [µM]	GI50 (SF-268)	GI50 (SN12C)	GI50 (SR)	GI50 (NCI-H226)
CCN(CC(O)COc1ccc2c(c1)[n+]([O-])nc(N)[n+]2[O-])C(C)=O (stereo not given)	> 100 µM (inactive)	86.5 µM (inactive)	39 µM (inactive)	38.9 µM (inactive)	> 100 µM (inactive)	> 100 µM (inactive)	79.1 µM (inactive)	> 100 µM (inactive)	> 100 µM (inactive)	91.2 µM (inactive)	97.9 µM (inactive)	63 µM (inactive)	> 100 µM (inactive)	> 100 µM (inactive)	> 100	80.5 µM (inactive)	> 100 µM (inactive)	> 100 µM (inactive)	> 100 µM (inactive)
CC(C)(C)OC(=O)NCCCCC(NC(=O)C(Cc1c[nH]c2ccccc12)NC(=O)OCC1c2ccccc2-c2ccccc21)C(=O)N1CCCC1C(=O)NCC(N)=O (stereo not given) (Fmoc-WK(Boc)PG-NH2; configuration not given here)	60.5 µM (inactive)	> 100 µM (inactive)	> 100 µM (inactive)	> 100 µM (inactive)	> 100 µM (inactive)	> 100 µM (inactive)	> 100 µM (inactive)	42.5 µM (inactive)	> 100 µM (inactive)	> 100 µM (inactive)	> 100 µM (inactive)	> 100 µM (inactive)	60.3 µM (inactive)	> 100 µM (inactive)	> 100	> 100 µM (inactive)	> 100 µM (inactive)	> 100 µM (inactive)	> 100 µM (inactive)
Oc1ccc(Cl)cc1-c1nc(S)nc(-c2ccccc2)c1Cl	> 100 µM (inactive)	> 100 µM (inactive)	> 100 µM (inactive)	18.9 µM (inactive)	> 10 µM (inactive)	> 100 µM (inactive)	> 61.7 µM (inactive)	> 56.4 µM (inactive)	> 100 µM (inactive)	> 100 µM (inactive)	> 96.4 µM (inactive)	22.9 µM (inactive)	28.6 µM (inactive)	44.7 µM (inactive)	> 100	> 64.3 µM (inactive)	> 100 µM (inactive)	> 100 µM (inactive)	> 100 µM (inactive)
O=[N+]([O-])c1ccc2c(c1)/C(=N/N=C1c3ccccc3Cc3ccccc31)c1cc([N+](=O)[O-])cc([N+](=O)[O-])c1-2	2.49 µM (inactive)	1.73 µM (inactive)	1.91 µM (inactive)	2.81 µM (inactive)	2.99 µM (inactive)	2.19 µM (inactive)	4.42 µM (inactive)	2.62 µM (inactive)	2.47 µM (inactive)	1.96 µM (inactive)	1.57 µM (inactive)	2.86 µM (inactive)	1.93 µM (inactive)	1.52 µM (inactive)	2.14	2.51 µM (inactive)	1.67 µM (inactive)	4.61 µM (inactive)	13.4 µM (inactive)
C[C@]12CC[C@H]3[C@@H](CCC4=CC(=O)CC[C@@H]43)[C@@H]1CC[C@]2(O)C(N)=O	> 100 µM (inactive)	> 100 µM (inactive)	> 100 µM (inactive)	> 100 µM (inactive)	> 100 µM (inactive)	> 100 µM (inactive)	> 100 µM (inactive)	> 100 µM (inactive)	> 100 µM (inactive)	> 100 µM (inactive)	> 100 µM (inactive)	> 100 µM (inactive)	> 100 µM (inactive)	> 100 µM (inactive)	> 100	> 100 µM (inactive)	> 100 µM (inactive)	> 100 µM (inactive)	> 100 µM (inactive)
C/N=C1\OC2=C3C(c4ccccc4)(O/C(=N/C)N(C)C3(c3ccccc3)OC2=O)N1C (stereo not given)	> 100 µM (inactive)	> 100 µM (inactive)	> 100 µM (inactive)	71.4 µM (inactive)	> 100 µM (inactive)	> 100 µM (inactive)	> 100 µM (inactive)	> 100 µM (inactive)	> 100 µM (inactive)	> 100 µM (inactive)	> 100 µM (inactive)	> 100 µM (inactive)	> 100 µM (inactive)	> 100 µM (inactive)	> 100	> 100 µM (inactive)	> 100 µM (inactive)	> 100 µM (inactive)	> 100 µM (inactive)
CCOC(=O)/C=C/CCO[Si](C)(C)C(C)(C)C		> 100 µM (inactive)	> 100 µM (inactive)	82.8 µM (inactive)	> 100 µM (inactive)	> 100 µM (inactive)	> 100 µM (inactive)	> 100 µM (inactive)	> 100 µM (inactive)	> 100 µM (inactive)	> 100 µM (inactive)	> 100 µM (inactive)	> 100 µM (inactive)	> 100 µM (inactive)	> 100	> 100 µM (inactive)	> 100 µM (inactive)	> 100 µM (inactive)	> 100 µM (inactive)
COc1ccc(-c2sc(Br)c3c2C(=O)C2OC(=O)NC32)cc1OC (stereo not given)	> 100 µM (inactive)	> 100 µM (inactive)	> 100 µM (inactive)	> 100 µM (inactive)	> 100 µM (inactive)	> 100 µM (inactive)	> 100 µM (inactive)	> 100 µM (inactive)	> 100 µM (inactive)	> 100 µM (inactive)	> 100 µM (inactive)	> 100 µM (inactive)	> 100 µM (inactive)	> 100 µM (inactive)	> 100	> 100 µM (inactive)	> 100 µM (inactive)	> 100 µM (inactive)	> 100 µM (inactive)
O=C1CC(c2ccccc2Cl)C2(C(=O)NC(=S)NC2=O)C(c2ccccc2Cl)C1 (stereo not given)	17.1 µM (inactive)	52 µM (inactive)	54.7 µM (inactive)	69.8 µM (inactive)	58.7 µM (inactive)	68.5 µM (inactive)	23.9 µM (inactive)	27.2 µM (inactive)	12.9 µM (inactive)	16.7 µM (inactive)	20 µM (inactive)	0.465 µM (active)	22.9 µM (inactive)	30.3 µM (inactive)	21.1	19 µM (inactive)	25.9 µM (inactive)	44 µM (inactive)	28.6 µM (inactive)
CN1C(=O)C(=CNc2ccccc2Cl)C(=O)N(C)C1=O	21.9 µM (inactive)	18.3 µM (inactive)	22.6 µM (inactive)	> 100 µM (inactive)	20.6 µM (inactive)	> 100 µM (inactive)	> 100 µM (inactive)	> 100 µM (inactive)	> 100 µM (inactive)	> 100 µM (inactive)	18 µM (inactive)	> 100 µM (inactive)	17.7 µM (inactive)	> 100 µM (inactive)	17.9	> 100 µM (inactive)	> 100 µM (inactive)	19.4 µM (inactive)	> 100 µM (inactive)
O=C1c2ccccc2-c2nnc3c(c21)Cc1ccccc1C3	> 10 µM (inactive)	> 10 µM (inactive)	> 10 µM (inactive)	2.43 µM (inactive)	> 10 µM (inactive)	> 10 µM (inactive)	> 10 µM (inactive)	> 10 µM (inactive)	> 10 µM (inactive)	> 10 µM (inactive)	> 10 µM (inactive)	> 10 µM (inactive)	> 10 µM (inactive)	> 10 µM (inactive)	> 10	> 10 µM (inactive)	> 10 µM (inactive)	> 10 µM (inactive)	> 10 µM (inactive)
O=C(O)c1cc2ccccc2c(/N=N/c2ccc(S(=O)(=O)Nc3ncccn3)cc2)c1O	> 100 µM (inactive)	> 100 µM (inactive)	> 100 µM (inactive)	> 100 µM (inactive)	> 100 µM (inactive)	> 100 µM (inactive)	> 100 µM (inactive)	> 100 µM (inactive)	> 100 µM (inactive)		> 100 µM (inactive)	> 100 µM (inactive)	> 100 µM (inactive)	> 100 µM (inactive)	> 100	> 100 µM (inactive)		> 100 µM (inactive)	> 100 µM (inactive)
Cc1ccc(C2=CC(=O)/C(=C\C(=O)c3ccc(Cl)cc3)O2)cc1	18.3 µM (inactive)	15.9 µM (inactive)	3.94 µM (inactive)	35.8 µM (inactive)	21.2 µM (inactive)	15.5 µM (inactive)	14.5 µM (inactive)	12.1 µM (inactive)	22.8 µM (inactive)	24.2 µM (inactive)	14.3 µM (inactive)	23.9 µM (inactive)		1.86 µM (inactive)	17.7	17.1 µM (inactive)		1.42 µM (inactive)	17.2 µM (inactive)
O=C1NC2(CCCCC2)C(=O)N1CCN(CCCl)CCCl [SPIROMUSTINE]	> 25 µM (inactive)	> 239 µM (inactive)	34.2 µM (inactive)	173 µM (inactive)	114 µM (inactive)	136 µM (inactive)	> 241 µM (inactive)	> 25 µM (inactive)	199 µM (inactive)	106 µM (inactive)	190 µM (inactive)	> 25 µM (inactive)		> 25 µM (inactive)			112 µM (inactive)	19.4 µM (inactive)	> 250 µM (inactive)
COc1ccc(Cc2cc(Cc3ccc(OC)cc3)cc(Cc3ccc(OC)cc3)c2)cc1	> 100 µM (inactive)	> 100 µM (inactive)	> 100 µM (inactive)	> 100 µM (inactive)	> 100 µM (inactive)	> 100 µM (inactive)		> 100 µM (inactive)	> 100 µM (inactive)		> 100 µM (inactive)	> 100 µM (inactive)	> 100 µM (inactive)	> 100 µM (inactive)	> 100	> 100 µM (inactive)	> 100 µM (inactive)	89.5 µM (inactive)	> 100 µM (inactive)
